Data: US20240190890A1, “MK2 INHIBITORS AND USES THEREOF” (Bristol-Myers Squibb Company, priority 2022, published 2024)

Target: p38a activated, mitogen-activated protein kinase-activated protein kinase 2 (MAPKAP-K2 or MK2) enzyme (Homo sapiens (Human), UniProt P49137)
Experiment: MK2 Omnia continuous-read kinase assay for compound potency
Type: biochemical
Settings: [MK-2]=0.4 nM, [ATP]=10 μM, [ST3-Sox]=10 μM; room temperature
In short: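 Continuous Sox-peptide fluorescence read (ex360/em485) every 71 s over 2 h at room temperature. Reactions: 10 μM each of ATP (at apparent Km) and S/T3-Sox, 0.4 nM p38a-activated MK2, pH 7.5 Tris/MgCl2 buffer. Initial rates yield % inhibition and IC50; single-exponential kobs values yield apparent kinact/KI.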

Chain of p38a activated, mitogen-activated protein kinase-activated protein kinase 2 (MAPKAP-K2 or MK2) enzyme (P49137 whole entry): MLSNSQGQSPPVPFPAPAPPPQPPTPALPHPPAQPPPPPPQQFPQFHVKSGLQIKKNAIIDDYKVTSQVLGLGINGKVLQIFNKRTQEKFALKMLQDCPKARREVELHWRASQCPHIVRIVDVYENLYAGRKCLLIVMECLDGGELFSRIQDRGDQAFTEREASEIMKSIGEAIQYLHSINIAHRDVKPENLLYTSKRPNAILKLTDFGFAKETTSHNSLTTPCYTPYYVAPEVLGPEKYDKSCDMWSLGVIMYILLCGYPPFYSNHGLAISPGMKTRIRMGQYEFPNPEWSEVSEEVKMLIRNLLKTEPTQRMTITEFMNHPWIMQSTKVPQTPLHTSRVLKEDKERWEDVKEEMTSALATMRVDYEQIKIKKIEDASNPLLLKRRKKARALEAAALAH

| IC50 | Compound |
| --- | --- |
| 291 nM | COc1cnc(Cl)nc1-c1ccc2c(ccc3sc4c(c32)NC[C@@H](C)NC4=O)n1 [Example I-10, (R)-3-(2-chloro-5-methoxypyrimidin-4-yl)-10-methyl-9,10,11,12-tetrahydro-8H-[1,4]diazepino[5′,6′:4,5]thieno[3,2-f]quinolin-8-one] |
| 2 nM | C=Cc1cc(-c2ccc3c(ccc4sc5c(c43)NC[C@@H](C)NC5=O)n2)nc(COCC)n1 [Example I-22, (R)-3-(2-(ethoxymethyl)-6-vinylpyrimidin-4-yl)-10-methyl-9,10,11,12-tetrahydro-8H-[1,4]diazepino[5′,6′:4,5]thieno[3,2-f]quinolin-8-one] |
| 46 nM | C[C@@H]1CNc2c(sc3ccc4nc(-c5cc(Cl)nc(C6CCN(C)CC6)c5)ccc4c23)C(=O)N1 [Example I-103, (R)-3-(2-chloro-6-(1-methylpiperidin-4-yl)pyridin-4-yl)-10-methyl-9,10,11,12-tetrahydro-8H-[1,4]diazepino[5′,6′:4,5]thieno[3,2-f]quinolin-8-one] |
| 18 nM | C[C@@H]1CNc2c(sc3ccc4nc(-c5nc(Cl)ncc5COC5(C)COC5)ccc4c23)C(=O)N1 [Example I-28, (R)-3-(2-chloro-5-(((3-methyloxetan-3-yl)oxy)methyl)pyrimidin-4-yl)-10-methyl-9,10,11,12-tetrahydro-8H-[1,4]diazepino[5′,6′:4,5]thieno[3,2-f]quinolin-8-one] |
| 26 nM | C#Cc1cc(-c2ccc3c(ccc4sc5c(c43)NC[C@@H](C)NC5=O)n2)cc(CN2C[C@@H](C)O[C@@H](C)C2)n1 [Example I-186, (R)-3-(2-(((2S,6R)-2,6-dimethylmorpholino)methyl)-6-ethynylpyridin-4-yl)-10-methyl-9,10,11,12-tetrahydro-8H-[1,4]diazepino[5′,6′:4,5]thieno[3,2-f]quinolin-8-one] |
| 1000 nM | C=Cc1nnc(C)n1-c1ccc2c(ccc3sc4c(c32)NC[C@@H](C)NC4=O)n1 [Example I-223, (R)-10-methyl-3-(3-methyl-5-vinyl-4H-1,2,4-triazol-4-yl)-9,10,11,12-tetrahydro-8H-[1,4]diazepino[5′,6′:4,5]thieno[3,2-f]quinolin-8-one] |
| 4 nM | C[C@@H]1CNc2c(sc3ccc4nc(-c5cc(Cl)nc(CO)n5)ccc4c23)C(=O)N1 [Example I-74, (R)-3-(6-chloro-2-(hydroxymethyl)pyrimidin-4-yl)-10-methyl-9,10,11,12-tetrahydro-8H-[1,4]diazepino[5′,6′:4,5]thieno[3,2-f]quinolin-8-one] |
| 402 nM | C#Cc1cc(-c2ccc3c(ccc4sc5c(c43)NC[C@@H](C)NC5=O)n2)cc(CN2CCC(OC(F)(F)F)CC2)n1 [Example I-190, (R)-3-(2-ethynyl-6-((4-(trifluoromethoxy)piperidin-1-yl)methyl)pyridin-4-yl)-10-methyl-9,10,11,12-tetrahydro-8H-[1,4]diazepino[5′,6′:4,5]thieno[3,2-f]quinolin-8-one] |
| 8 nM | C=Cc1cc(-c2ccc3c(ccc4sc5c(c43)NC[C@@H](C)NC5=O)n2)cc(C2=CCN(C)CC2)n1 [Example I-101, (R)-10-methyl-3-(1′-methyl-6-vinyl-1′,2′,3′,6′-tetrahydro-[2,4′-bipyridin]-4-yl)-9,10,11,12-tetrahydro-8H-[1,4]diazepino[5′,6′:4,5]thieno[3,2-f]quinolin-8-one] |
| 184 nM | C#Cc1cc(-c2ccc3c(ccc4sc5c(c43)NC[C@@H](C)NC5=O)n2)cc(N2CCC2)n1 [Example I-180, (R)-3-(2-(azetidin-1-yl)-6-ethynylpyridin-4-yl)-10-methyl-9,10,11,12-tetrahydro-8H-[1,4]diazepino[5′,6′:4,5]thieno[3,2-f]quinolin-8-one] |
| 1 nM | C=Cc1nccn1-c1ccc2c(ccc3sc4c(c32)NC[C@@H](CF)NC4=O)n1 [Example I-255, (S)-10-(fluoromethyl)-3-(2-vinyl-1H-imidazol-1-yl)-9,10,11,12-tetrahydro-8H-[1,4]diazepino[5′,6′:4,5]thieno[3,2-f]quinolin-8-one] |
| 137 nM | C#Cc1cc(-c2ccc3c(ccc4sc5c(c43)NC[C@@H](C)NC5=O)n2)c(OCCN2CCOCC2)nn1 [Example I-134, (R)-3-(6-ethynyl-3-(2-morpholinoethoxy)pyridazin-4-yl)-10-methyl-9,10,11,12-tetrahydro-8H-[1,4]diazepino[5′,6′:4,5]thieno[3,2-f]quinolin-8-one] |
| 1000 nM | CC#Cc1ncc(F)c(-c2ccc3c(ccc4sc5c(c43)NC[C@@H](C)NC5=O)n2)n1 [Example I-44, (R)-3-(5-fluoro-2-(prop-1-yn-1-yl)pyrimidin-4-yl)-10-methyl-9,10,11,12-tetrahydro-8H-[1,4]diazepino[5′,6′:4,5]thieno[3,2-f]quinolin-8-one] |
| 213 nM | CC#Cc1nccc(-c2ccc3c(ccc4sc5c(c43)NC[C@@H](C)NC5=O)n2)n1 [Example I-53, (R)-10-methyl-3-(2-(prop-1-yn-1-yl)pyrimidin-4-yl)-9,10,11,12-tetrahydro-8H-[1,4]diazepino[5′,6′:4,5]thieno[3,2-f]quinolin-8-one] |
| 18 nM | C=Cc1nc(C(=O)OCC)c(-c2ccc3c(ccc4sc5c(c43)NC[C@@H](C)NC5=O)n2)s1 [Example I-234, ethyl (R)-5-(10-methyl-8-oxo-9,10,11,12-tetrahydro-8H-[1,4]diazepino[5′,6′:4,5]thieno[3,2-f]quinolin-3-yl)-2-vinylthiazole-4-carboxylate] |
| 4 nM | C[C@@H]1CNc2c(sc3ccc4nc(-c5cc(Cl)nc(C#CC(C)(C)N)n5)ccc4c23)C(=O)N1 [Example I-64, (R)-3-(2-(3-amino-3-methylbut-1-yn-1-yl)-6-chloropyrimidin-4-yl)-10-methyl-9,10,11,12-tetrahydro-8H-[1,4]diazepino[5′,6′:4,5]thieno[3,2-f]quinolin-8-one] |
| 44 nM | C=Cc1nn(C)cc1-c1ccc2c(ccc3sc4c(c32)NC[C@@H](C)NC4=O)n1 [Example I-230, (R)-10-methyl-3-(1-methyl-3-vinyl-1H-pyrazol-4-yl)-9,10,11,12-tetrahydro-8H-[1,4]diazepino[5′,6′:4,5]thieno[3,2-f]quinolin-8-one] |
| 95 nM | C=Cc1csc(-c2ccc3c(ccc4sc5c(c43)NC[C@@H](C)NC5=O)n2)n1 [Example I-149, (R)-10-methyl-3-(4-vinylthiazol-2-yl)-9,10,11,12-tetrahydro-8H-[1,4]diazepino[5′,6′:4,5]thieno[3,2-f]quinolin-8-one] |
| 214 nM | C#Cc1cc(-c2ccc3c(ccc4sc5c(c43)NC[C@@H](C)NC5=O)n2)cc(N2CCOCC2)n1 [Example I-157, (R)-3-(2-ethynyl-6-morpholinopyridin-4-yl)-10-methyl-9,10,11,12-tetrahydro-8H-[1,4]diazepino[5′,6′:4,5]thieno[3,2-f]quinolin-8-one] |
| 199 nM | C#Cc1ncc(C)c(-c2ccc3c(ccc4sc5c(c43)NC[C@@H](C)NC5=O)n2)n1 [Example I-41, (R)-3-(2-ethynyl-5-methylpyrimidin-4-yl)-10-methyl-9,10,11,12-tetrahydro-8H-[1,4]diazepino[5′,6′:4,5]thieno[3,2-f]quinolin-8-one] |
| 40 nM | C#Cc1cc(-c2ccc3c(ccc4sc5c(c43)NC[C@@H](C)NC5=O)n2)cc(CN2CCC(OC)CC2)n1 [Example I-122, (R)-3-(2-ethynyl-6-((4-methoxypiperidin-1-yl)methyl)pyridin-4-yl)-10-methyl-9,10,11,12-tetrahydro-8H-[1,4]diazepino[5′,6′:4,5]thieno[3,2-f]quinolin-8-one] |
| 39 nM | C#Cc1cc(-c2ccc3c(ccc4sc5c(c43)NC[C@@H](C)NC5=O)n2)cc(CN2CCOCC2)n1 [Example I-169, (R)-3-(2-ethynyl-6-(morpholinomethyl)pyridin-4-yl)-10-methyl-9,10,11,12-tetrahydro-8H-[1,4]diazepino[5′,6′:4,5]thieno[3,2-f]quinolin-8-one] |
| 6 nM | COCc1nc(Cl)cc(-c2ccc3c(ccc4sc5c(c43)NC[C@@H](C)NC5=O)n2)n1 [Example I-7, (R)-3-(6-chloro-2-(methoxymethyl)pyrimidin-4-yl)-10-methyl-9,10,11,12-tetrahydro-8H-[1,4]diazepino[5′,6′:4,5]thieno[3,2-f]quinolin-8-one] |
| 472 nM | C[C@@H]1CNc2c(sc3ccc4nc(-c5cc(Cl)nc(Cl)c5)ccc4c23)C(=O)N1 [Example I-68, (R)-3-(2,6-dichloropyridin-4-yl)-10-methyl-9,10,11,12-tetrahydro-8H-[1,4]diazepino[5′,6′:4,5]thieno[3,2-f]quinolin-8-one] |
| 81 nM | C[C@@H]1CNc2c(sc3ccc4nc(-n5ccc(Cl)n5)ccc4c23)C(=O)N1 [Example I-165, (R)-3-(3-chloro-1H-pyrazol-1-yl)-10-methyl-9,10,11,12-tetrahydro-8H-[1,4]diazepino[5′,6′:4,5]thieno[3,2-f]quinolin-8-one] |
| 2 nM | C[C@@H]1CNc2c(sc3ccc4nc(-c5cc(Cl)ncn5)ccc4c23)C(=O)N1 [Example I-11, (R)-3-(6-chloropyrimidin-4-yl)-10-methyl-9,10,11,12-tetrahydro-8H-[1,4]diazepino[5′,6′:4,5]thieno[3,2-f]quinolin-8-one] |

| Compound | IC50 |
| --- | --- |
| (10R)-3-(2-(2,6-dimethylmorpholino)-6-vinylpyridin-4-yl)-10-methyl-9,10,11,12-tetrahydro-8H-[1,4]diazepino[5′,6′:4,5]thieno[3,2-f]quinolin- [Example I-201] | 73 nM |
| C[C@@H]1CNc2c(sc3ccc4nc(-c5cc(Cl)nc(Cl)n5)ccc4c23)C(=O)N1 [Example I-58, (R)-3-(2,6-dichloropyrimidin-4-yl)-10-methyl-9,10,11,12-tetrahydro-8H-[1,4]diazepino[5′,6′:4,5]thieno[3,2-f]quinolin-8-one] | 16 nM |
| (R)-10-methyl-3-(6-(3-morpholinoprop-1-en-2-yl)pyrimidin-4-yl)-9,10,11,12-tetrahydro-8H-[1,4]diazepino[5′,6′:4,5]thieno[3,2-f]quinolin- [Example I-139] | 2 nM |
